This note sets out measurements from patent US6958321B2, “Isolation, characterization, cloning and use of a mushroom lectin” (The Regents of the University of Michigan, priority 2001, dated 2005).

pKd: −log10 of the molar value.

One test addresses T1, recombinant MOA (rMOA) (Marasmius oreades, UniProt Q8X123).
T1 sequence (Q8X123 1-293): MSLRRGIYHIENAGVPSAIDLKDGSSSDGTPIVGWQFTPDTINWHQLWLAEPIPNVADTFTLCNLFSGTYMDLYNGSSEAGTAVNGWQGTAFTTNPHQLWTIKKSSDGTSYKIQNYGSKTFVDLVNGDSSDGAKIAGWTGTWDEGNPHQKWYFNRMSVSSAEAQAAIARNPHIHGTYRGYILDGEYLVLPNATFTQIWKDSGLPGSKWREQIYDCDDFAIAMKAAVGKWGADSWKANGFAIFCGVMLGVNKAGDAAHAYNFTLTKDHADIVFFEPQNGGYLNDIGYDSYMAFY
The experiment in a line: Isothermal titration calorimetry, recombinant MOA (rMOA). The test is classed as binding. The conditions noted are these: read-out: Ka, rMOA (converted). The method, then: (§1) As this volume underfills the titration cell, variable volume calculations were applied, using the Bindworks software installed in the instrument. […] Finally, the trisaccharide L-Fucα1,2Ga1β1,4G1c (fucosyllactose), related to the blood group H trisaccbaride, was assayed. […] While not to be limited to any particular mechanism, it is believed that this may be the reason that MOA recognizes and agglutinates human O erythrocytes to a limited extent, and gives a weak precipitin curve with blood group H substance.
Expression and characterization of recombinant MOA: A full-length PCR product incorporating NdeI and EcoRI into its forward and reverse primers, respectively, was cloned into PCR Blunt II using topoisomerase (Invitrogen) and subsequently shuttled into an IPTG inducible pT7 expression vector (MOApT7LO). Recombinant MOA was expressed in a Nova Blue DE3 strain of E. coli. Expressing bacteria were collected by centrifugation and resuspended in a lysis buffer consisting of 50 mM NaH2PO4, 300 mM NaCl, 10 mM imidizole, 10mM 2-mercaptoethanol, 1 mM phenylmethylsulfonyl fluoride, 1% NP-40, and a protease inhibitor cocktail. The extract was twice run through a french press. The insoluble fraction was removed by centrifugation (10,000×g, 15 min).
(§2) Purification of recombinant MOA and native intact MOA-Recombinant MOA was purified from the soluble fraction by absorption on a column of melibiose-Sepharose and elution by lactose. Further purification was carried out on an affinity column of Synsorb B. Except for the diaminopropane elution, all affinity purifications were carried out in PBS, pH 7.2, containing 1.25 mM EDTA. After purification, lectin solutions were dialyzed against distilled water and lyophilized. […] Intact native MOA was prepared with a purification procedure (Example 2) that utilized a protease inhibitor cocktail (product P8215, Sigma, St. Louis, Mo.) which was added at the level of 0.1 ml/100 ml extract buffer (instead of phenylmethylsulfonyl fluoride), all buffers lacked Ca^++ and contained 1.25 mM EDTA, and the initial extraction and ammonium sulfate fractionations were carried out under an atmosphere of argon.
(§3) Binding constants of several relevant oligosaccharides to recombinant and intact native MOA were determined calorimetrically.
On the technique in general: Isothermal titration calorimetry measures the heat released or taken up as one component is titrated into another.

Test [1] concerns the target T2, Marasmius oreades lectin (MOA, cMOA) (Marasmius oreades, UniProt Q8X123).
T2 sequence (Q8X123 1-293): T1 sequence (Q8X123 1-293)
The experiment in a line: Isothermal titration calorimetry, MOA of Example 1 (proteolyzed, clipped form, cMOA). The settings on record: for Ka, cMOA: proteolyzed (clipped) native lectin, Table 6. The test is classed as binding.

Test [2] concerns MOA. The experiment in a line: Sugar ligand binding to MOA (hemagglutination inhibition, hapten inhibition of precipitation, calorimetry). Also on record: species or system Marasmius oreades. The settings on record: binding to MOA in solution. As to the method:
All three methods gave approximately the same results, with the calorimetric data being the most precise.
Being a blood type B agglutinin, MOA was assayed primarily against D-galactosyl-terminated sugars and oligosaccharides. […] Methyl α-galactopyranoside was similarly very poor. […] While not limited to any particular mechanism, and with the understanding that knowledge of the underlying mechanism is not required for the practice of the invention, it is believed that recognition of the L-fucosyl moiety is the reason for limited agglutination of human O erythrocytes and a weak precipitin curve with blood group H substance.

In a further test the target is T3, intact native MOA (nMOA) (Marasmius oreades, UniProt Q8X123).
T3 sequence (Q8X123 1-293): T1 sequence (Q8X123 1-293)
The experiment in a line: Isothermal titration calorimetry, intact native MOA (nMOA). The settings on record: read-out: Ka, nMOA (converted). In kind it is binding. As to the method:
as §1, §2, §3

Test [3] deals with MOA. The experiment in a line: Quantitative precipitation assay with MOA. The test is classed as binding, Marasmius oreades. The conditions noted are these: 20 μg MOA, PBS pH 7.2, 48 hr at 4° C. As to the method: In other embodiments, blood group specificity of MOA is determined by quantitative precipitation assays. Quantitative microprecipitation assays with soluble cyst blood group substances and inhibition of precipitation by sugar haptens were performed as described in Mo et al., [J. Biol. Chem. 275:10623 (2000)].
For quantitative precipitation assays, 20 μg of MOA and increasing amounts of glycoprotein or polysaccharide were used in a total volume of 120 to 200 μL, all in PBS/0.15 M NaCl. Quantitative carbohydrate hapten inhibition assays were conducted by adding increasing amounts of haptens to a mixture of MOA (20 μg) and type B blood group substance (5.0 μg). The reactions were incubated at 37° C. for an hour and then at 4° C. for 48 hours followed by centrifugation of the precipitates, washing, and determination of protein by the Lowry method [Lowry, O. H. et al., J. Biol. Chem. 193, 265-275 (1951)].
Varying amounts of blood group substances from 0 to 200 μg were incubated with 20 μg of MOA in a total volume of 150 μl of PBS (pH 7.2). After 48 hr at 4° C., the amounts of protein precipitated were quantified as described above. Solid squares indicate group A substance, solid circles indicate group B substance, and solid triangles indicate group O substance.
Various amounts of glycoconjugates, ranging from 0 to 100 μg were incubated with 20 μg of lectin in a total volume of 150 μl of PBS (pH 7.2). After 48 hr at 4° C., the amounts of protein precipitated were quantified, as described above. Solid circles indicate MOA interaction with laminin, solid crosses indicate MOA interaction with bovine thyroglobulin, solid squares indicate MOA interaction with C. alata galactomannan, solid triangles indicate MOA interaction with pigeon ovalbumin, open circles indicate MOA interaction with Ga1NAcα1,3Ga1β-polyacrylamide, open squares indicate GS I-B4 interaction with pigeon ovalbumin and closed inverted triangles indicate GS I-B4 interaction with Ga1NAcα1,3Ga1β-polyacrylamide.

The subject of the next test is immobilized MOA. The test is described as follows: Binding to MOA-Sepharose 4B affinity column. Details: species or system Marasmius oreades. The conditions noted are these: washed with PBS, eluted with 20 mM diaminopropane. The source says:
Further insight into the carbohydrate specificity of MOA was obtained by using immobilized MOA. Immobilization of MOA on a variety of supports is contemplated. In one embodiment, MOA is immobilized on a matrix that can be used in an affinity column (see below). In some embodiments, the matrix comprises Sepharose 4B beads. In some Embodiments, the MOA-conjugated Sepharose 4B beads are packed in a column for binding and affinity isolation and purification studies. Briefly, the MOA-Sepharose column is loaded with glycan, glycoconjugate or serum sample to be tested, then washed with an appropriate buffer (including but not limited to PBS). Bound components are eluted with a suitable elution buffer (including but not limited to 1,3-diaminopropane in NaCl), and the collected fractions are analyzed for the presence of protein or glycan (see Example 6 below). The fractions containing the bound components (eluted as described herein) can be pooled and concentrated.
MOA was immobilized on cyanogen bromide-activated Sepharose 4B as follows. 1.5 g of cyanogen bromide-activated Sepharose 4B was allowed to swell in 100 ml of 1 mM HCl solution for 30 min. The supernatant was removed and the swollen beads (6 ml) were filtered on a sintered funnel, washed several times with 100 ml of 1 mM HCl and finally with 20 ml of 0.1 M sodium bicarbonate buffer, pH 8.3, containing 0.5 M sodium chloride. The beads were quickly transferred to a plastic bottle containing 16.2 mg MOA in the same buffer (10 ml) containing 0.2 M lactose. The plastic bottle was shaken at room temperature for 6 hr and at 4° C. overnight. The beads were filtered on a sintered glass funnel, washed with the coupling buffer, and then shaken in 1 M ethanolamine (12 ml) at room temperature for 2.5 hr to cap all of the unreacted iminocarbonate groups. The beads were filtered, washed alternately with the coupling buffer then sodium acetate buffer (0.1 M, pH 4.0 containing 0.5 M NaCl) four times. A column (1×7 cm) packed with the beads was finally washed with PBS containing 0.04% sodium azide. The beads contained 2.3 mg MOA per ml Sepharose 4B, based on MOA remaining in solution.
In order to assess the binding of various glycans, glycoconjugates and serum samples to MOA-Sepharose, the following general procedure was used. The MOA-Sepharose column was loaded with glycan, glycoconjugate or serum sample (0.6-5 ml) and washed with PBS (15 ml). The bound components were eluted with 20 mM 1,3-diaminopropane in 0.15 M NaCl (15 ml). The fractions collected (1 ml) were neutralized with 1 M phosphoric acid (approximately 16 μl), and analyzed by either absorbance at 280 nm for protein, or by phenol-sulfuric acid assay, as described by Dubois et al. [Anal. Chem. 28: 350 (1956)] for the glycan. The column was finally washed thoroughly with PBS. The fractions containing the bound components were pooled and concentrated by Amicon ultrafiltration (Millipore Corp., Bedford, Mass.) using a membrane (YM10) of 10,000 molecular weight cut-off.

The mark [4] stands for this setting: isothermal titration calorimetry.
The mark [5] stands for this setting: isothermal titration calorimetry, Table 3.

With `OC[C@H]1O[C@H](O[C@H]2[C@@H](O)[C@@H](CO)OC(O)[C@@H]2O)[C@H](O)[C@@H](O)[C@H]1O` (stereo partly drawn) [Galα1,3Gal], the Kd on recombinant MOA (rMOA) was 37.5 µM. Moreover, in test [1], the “affinity constant relative to that for Meα-Gal” value is 44 fold and the “Ka, cMOA” value was 5.48 10^3 M^−1. Further, in test [1] (setting [4]), the Ka stood at 6000 M⁻¹; the pKd (as a rule, the Kd on a negative log10 scale, so that one unit is a factor of ten) was 3.74; the TΔS came out at 15.0 kcal/mol; the “−ΔG” value stood at 5.05 kcal/mol. In addition, the “−ΔH” value in test [1] (setting [4]) came out at 20.1 kcal/mol. Besides, in test [1] (setting [5]), the Ka was 5.48 10^3 M^−1 and the “ligand binding” value is on record as “excellent ligand”. Further, in the test on MOA [2], the “ligand binding” value is reported as “excellent ligand”. Moreover, the Kd on intact native MOA (nMOA) is 36.6 µM.

Consider `CC(=O)N[C@H]1C(O)O[C@H](CO)[C@@H](O[C@@H]2O[C@H](CO)[C@H](O)[C@H](O)[C@H]2O)[C@@H]1O` (stereo partly drawn) [LacNAc, N-acetyllactosamine], for which the Kd at recombinant MOA (rMOA) is 1490 µM. In addition, in test [1] (setting [4]), the pKd is 2.46, the TΔS stood at 10.9 kcal/mol, the “−ΔG” value amounted to 3.33 kcal/mol and the “−ΔH” value stood at 14.22 kcal/mol. Also, the Ka in test [1] (setting [5]) is recorded as 0.290 10^3 M^−1. Besides, the “Ka, cMOA” value in test [1] is 0.29 10^3 M^−1. Moreover, the “ligand binding” value in the test on MOA [2] was “very poor ligands”. Further, the Kd on intact native MOA (nMOA) is 2630 µM.

Turning to Galactomannan, the “precipitation with MOA” value in the test on MOA [3] is “did not precipitate”. For the same compound, the “binding to MOA-Sepharose column” value with immobilized MOA was “failed to bind”.

In the case of “bovine thyroglobulin: bovine thyroglobulin, with Galα1,3Galβ1,4GlcNAc end groups”, in the test with MOA [3], the “precipitation with MOA” value is given as “reacted strongly”. Moreover, the “binding to MOA-Sepharose column” value in the test with immobilized MOA is listed as “bound tightly”.

Take “laminin: Laminin purified from the EHS sarcoma, with Galα1,3Galβ1,4GlcNAc end groups”: in the test with MOA [3], the “precipitation with MOA” value is “reacted strongly”. In the test with immobilized MOA, the “binding to MOA-Sepharose column” value is “bound tightly”.
